From patent publication US10168342B2, “Lipid probes and uses thereof” (THE SCRIPPS RESEARCH INSTITUTE, priority 2015, dated 2019)
Where two headings read alike, the source gives them in different places.

Key:
[1] = biological target: T1, AEA-DA lipid probe targets in Neuro2a cells (Mus musculus, UniProt Q9R0P6); details: for SILAC ratio, SEC11A (P67812): Neuro2a cells, AEA-DA probe
T1 sequence (Q9R0P6 1-179): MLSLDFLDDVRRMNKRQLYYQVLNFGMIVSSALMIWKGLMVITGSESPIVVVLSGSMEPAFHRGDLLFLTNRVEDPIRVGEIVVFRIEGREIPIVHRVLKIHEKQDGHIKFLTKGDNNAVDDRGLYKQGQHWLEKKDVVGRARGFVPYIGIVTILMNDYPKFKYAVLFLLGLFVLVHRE

[2] = biological target: T2, AEA-DA lipid probe targets in Neuro2a cells (Mus musculus, UniProt Q8C3X8)
T2 sequence (Q8C3X8 1-702): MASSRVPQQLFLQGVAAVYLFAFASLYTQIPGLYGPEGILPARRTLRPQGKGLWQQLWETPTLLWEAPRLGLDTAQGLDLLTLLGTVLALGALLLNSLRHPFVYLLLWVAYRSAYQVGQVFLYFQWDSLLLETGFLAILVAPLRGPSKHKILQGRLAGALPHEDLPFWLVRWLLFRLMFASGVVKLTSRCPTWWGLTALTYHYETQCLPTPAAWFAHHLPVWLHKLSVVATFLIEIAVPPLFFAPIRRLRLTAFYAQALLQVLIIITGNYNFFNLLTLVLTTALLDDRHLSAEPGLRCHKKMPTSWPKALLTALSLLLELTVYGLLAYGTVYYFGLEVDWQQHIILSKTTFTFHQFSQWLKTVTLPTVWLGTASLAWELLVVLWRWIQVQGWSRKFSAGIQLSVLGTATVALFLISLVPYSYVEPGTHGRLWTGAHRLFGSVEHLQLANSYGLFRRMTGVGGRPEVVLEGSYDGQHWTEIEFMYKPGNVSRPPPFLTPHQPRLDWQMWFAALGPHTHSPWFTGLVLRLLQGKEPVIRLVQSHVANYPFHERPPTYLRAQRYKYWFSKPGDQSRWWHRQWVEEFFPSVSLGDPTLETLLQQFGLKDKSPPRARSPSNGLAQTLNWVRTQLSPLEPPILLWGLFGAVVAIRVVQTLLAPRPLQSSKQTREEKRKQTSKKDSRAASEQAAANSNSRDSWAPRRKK

[3] = biological target: T3, AEA-DA lipid probe targets in Neuro2a cells (Mus musculus, UniProt P48678)
T3 sequence (P48678 1-665): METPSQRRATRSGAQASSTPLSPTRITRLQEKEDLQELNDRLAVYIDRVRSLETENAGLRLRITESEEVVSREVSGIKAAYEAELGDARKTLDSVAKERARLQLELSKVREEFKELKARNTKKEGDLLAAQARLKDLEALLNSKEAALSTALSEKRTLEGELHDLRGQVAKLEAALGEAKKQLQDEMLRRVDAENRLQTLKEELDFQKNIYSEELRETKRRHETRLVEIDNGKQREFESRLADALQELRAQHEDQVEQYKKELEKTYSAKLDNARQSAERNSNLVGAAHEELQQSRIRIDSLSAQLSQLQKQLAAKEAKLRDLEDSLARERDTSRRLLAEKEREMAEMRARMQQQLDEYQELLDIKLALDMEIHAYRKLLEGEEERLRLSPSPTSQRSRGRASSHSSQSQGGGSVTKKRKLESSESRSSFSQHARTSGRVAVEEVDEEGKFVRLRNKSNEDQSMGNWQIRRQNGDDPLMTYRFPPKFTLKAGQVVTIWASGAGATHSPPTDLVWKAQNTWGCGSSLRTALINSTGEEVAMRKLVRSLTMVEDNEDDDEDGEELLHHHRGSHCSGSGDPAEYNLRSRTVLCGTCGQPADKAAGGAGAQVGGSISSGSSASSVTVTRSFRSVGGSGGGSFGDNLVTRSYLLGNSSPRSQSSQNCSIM

[4] = biological target: T4, AEA-DA lipid probe targets in Neuro2a cells (Mus musculus, UniProt Q80UU9); details: for SILAC ratio, PGRMC2 (Q80UU9): Neuro2a cells, AEA-DA probe
T4 sequence (Q80UU9 1-217): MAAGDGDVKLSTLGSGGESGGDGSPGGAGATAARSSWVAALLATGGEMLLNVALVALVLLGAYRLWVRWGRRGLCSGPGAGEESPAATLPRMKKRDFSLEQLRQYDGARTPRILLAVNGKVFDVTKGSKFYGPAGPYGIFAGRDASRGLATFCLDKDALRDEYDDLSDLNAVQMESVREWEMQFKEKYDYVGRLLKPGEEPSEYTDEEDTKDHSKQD

[5] = biological target: T5, AEA-DA lipid probe targets in Neuro2a cells (Mus musculus, UniProt Q8BKE6)
T5 sequence (Q8BKE6 1-462): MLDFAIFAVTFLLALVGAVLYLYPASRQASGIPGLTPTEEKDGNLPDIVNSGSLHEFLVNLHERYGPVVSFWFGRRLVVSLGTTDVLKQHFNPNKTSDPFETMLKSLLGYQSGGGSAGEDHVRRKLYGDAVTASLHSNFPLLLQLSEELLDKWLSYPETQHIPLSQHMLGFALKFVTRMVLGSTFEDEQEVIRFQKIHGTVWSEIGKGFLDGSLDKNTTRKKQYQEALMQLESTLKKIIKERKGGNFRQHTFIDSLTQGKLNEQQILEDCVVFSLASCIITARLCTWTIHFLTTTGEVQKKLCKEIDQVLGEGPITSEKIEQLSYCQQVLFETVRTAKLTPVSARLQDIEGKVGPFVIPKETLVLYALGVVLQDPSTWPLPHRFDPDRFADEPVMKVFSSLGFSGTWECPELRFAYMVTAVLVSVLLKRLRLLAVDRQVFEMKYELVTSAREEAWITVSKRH

SMILES	SILAC ratio, SEC11A (P67812) ([1]; competitor 25 μM)	SILAC ratio, Sec11a ([1]; competitor 25 μM)	SILAC ratio Lmf2 ([2]; competitor 25 μM)	SILAC ratio Lmna ([3]; competitor 25 μM)	SILAC ratio, Cyp20a1 ([5]; competitor 25 μM)	SILAC ratio, PGRMC2 (Q80UU9) ([4]; competitor 25 μM)	SILAC ratio, Pgrmc2 ([4]; competitor 25 μM)	other results
CCCCC/C=C\C/C=C\C/C=C\C/C=C\CCCC(=O)NCCO [AEA, anandamide, reference compound]	–	–	–	–	–	–	–	SILAC ratio, SEC11A (P67812) ([1]; competitor 200 μM): 1.9; SILAC ratio, Sec11a ([1]; competitor 200 μM): 1.9; SILAC ratio Lmf2 ([2]; competitor 200 μM): 1.9; SILAC ratio Lmna ([3]; competitor 200 μM): 1.1; SILAC ratio, PGRMC2 (Q80UU9) ([4]; competitor 200 μM): 2.0; SILAC ratio, Pgrmc2 ([4]; competitor 200 μM): 2.0
O=C(/C=C/c1cccnc1)NCCCCC1CCN(C(=O)c2ccccc2)CC1 [FK-866, reference compound]	1.1	1.1	1.2	1.2	1.1	1.2	1.2	–
CN1CCN(C(=O)c2c(-c3ccccc3)c3cc([N+](=O)[O-])ccc3n2C)CC1 [KML110, (1-Methyl-5-nitro-3-phenyl-1H-indol-2-yl)(4-methylpiperazin-1-yl)methanone]	–	1.6	1.7	1.3	1.4	–	1.6	–
CN1CCN(C(=O)c2[nH]c3ccc([N+](=O)[O-])cc3c2-c2ccccc2)CC1 [MJN228, (4-Methylpiperazin-1-yl)(5-nitro-3-phenyl-1H-indol-2-yl)methanone]	1.6	1.6	1.7	1.1	1.3	1.5	1.5	SILAC ratio, Sec11a ([1]; competitor 10 μM): 1.2; SILAC ratio, Sec11a ([1]; competitor 50 μM): 1.7; SILAC ratio, Sec11a ([1]; competitor 100 μM): 2.3; SILAC ratio Lmf2 ([2]; competitor 10 μM): 1.5; SILAC ratio Lmf2 ([2]; competitor 50 μM): 2.0; SILAC ratio Lmf2 ([2]; competitor 100 μM): 2.5; SILAC ratio Lmna ([3]; competitor 10 μM): 1.3; SILAC ratio Lmna ([3]; competitor 50 μM): 1.3; SILAC ratio Lmna ([3]; competitor 100 μM): 1.5; SILAC ratio, Cyp20a1 ([5]; competitor 10 μM): 1.2; SILAC ratio, Cyp20a1 ([5]; competitor 50 μM): 1.2; SILAC ratio, Cyp20a1 ([5]; competitor 100 μM): 1.6; SILAC ratio, Pgrmc2 ([4]; competitor 10 μM): 1.2; SILAC ratio, Pgrmc2 ([4]; competitor 50 μM): 1.7; SILAC ratio, Pgrmc2 ([4]; competitor 100 μM): 2.0
C=CCN(C)CCCCCCOc1ccc(C(=O)c2ccc(Br)cc2)c(F)c1 [Ro 48-8071, reference compound]	1.6	1.6	1.3	1.1	1.1	1.3	1.3	–
